PMC12214536 (Nature Communications, 2025)
Read-outs that look alike come from different tables or passages of the source.

Key:
CrzA:GFP = type: cell-based, Aspergillus fumigatus; settings: 15 min
ΔsltA CrzA:GFP = type: cell-based, Aspergillus fumigatus; settings: 15 min
A. fumigatus = type: cell-based, Aspergillus fumigatus; settings: 58 PKI at 20 µM alone or with COL 2.5 µM; 48 h, 37 °C
A. fumigatus conidia = test: Fungicidal activity: CFU on drug-free MM after 48 h with compound + CAS; type: cell-based, Aspergillus fumigatus; settings: 0.2 μg/mL CAS, then CFU on compound-free medium, n = 3
HepG2 liver cells = test: HepG2 cytotoxicity, Alamar blue; type: cell-based, human; settings: COL 0, 20 and 40 µM + CAS 50 μg/mL; topotecan positive control; 48 h; n = 6
[1] = test system: A. fumigatus h2A::mRFP strain; test: h2A::mRFP fluorescence, apoptosis-like cell death marker; type: cell-based, Aspergillus fumigatus; settings: H2O2 10 mM, COL 10 or 20 μM, CAS 0.03 or 0.2 μg/mL, or CAS with COL; 1 h
[2] = test system: A. fumigatus mito::GFP germlings; type: cell-based, Aspergillus fumigatus
[3] = test system: A. fumigatus wild-type mycelia; type: cell-based, Aspergillus fumigatus; settings: n = 9
A. fumigatus ΔsltA = type: cell-based, Aspergillus fumigatus
A. fumigatus ΔsltA ΔcrzA = type: cell-based, Aspergillus fumigatus
[4] = test system: A. fumigatus wild-type (p)agsA::mluc; type: cell-based, Aspergillus fumigatus; settings: CAS 0.05 and 0.125 µg/mL; COL 50 and 80 µM; or combination; 16 h at 35 °C
SltA = type: cell-based, Aspergillus fumigatus
[5] = test system: A. fumigatus conidia in A549 cells; test: A549 human lung epithelial cells killing assay; type: cell-based, Aspergillus fumigatus
[6] = test system: A. fumigatus (Af293) infection; type: in vivo, Caenorhabditis elegans
A. fumigatus ΔcalA = type: cell-based, Aspergillus fumigatus
A. fumigatus ΔcrzA = type: cell-based, Aspergillus fumigatus

For [Ca+2].[Cl-].[Cl-] [CaCl2], the “increase of CrzA:GFP translocation to the nucleus” value (CrzA:GFP) was “about 4 fold” and the “increase of CrzA:GFP localization to the nucleus” value (ΔsltA CrzA:GFP) was “about 4 fold”.
For Cn1cc(C2=C(c3cn(C4CCN(Cc5ccccn5)CC4)c4ccccc34)C(=O)NC2=O)c2ccccc21 [enzaustarin, enzastaurin], the “potentiation of COL activity (metabolic activity)” value (A. fumigatus) was “potentiated COL activity”.
For COC(=O)C1=C(C)NC(C)=C(C(=O)OC(C)(C)CN(C)CCC(c2ccccc2)c2ccccc2)C1c1cccc([N+](=O)[O-])c1 (centres unmarked) [LER, lercanidipine], the “lowest concentration with 100% fungicidal effect combined with CAS” value (A. fumigatus conidia) was 3.95 µg/mL.
In the case of CC[C@@]1(O)C(=O)OCc2c1cc1n(c2=O)Cc2cc3c(CN(C)C)c(O)ccc3nc2-1 [topotecan], the “toxicity to HepG2 cells (cell viability, Alamar blue)” value (HepG2 liver cells) is reported as “very high toxicity”.
OO [H2O2] was tested, and the “mRFP fluorescence of h2A::mRFP germlings” value [1] was “complete loss of red fluorescence”.
With colistin the “lowest concentration with 100% fungicidal effect combined with CAS” value (A. fumigatus conidia) was 10 µM, the “germlings with mitochondrial fragmentation” value [2] was 20% and the “mRFP fluorescence of h2A::mRFP germlings” value [1] was “no differences in mRFP fluorescence”. The “reduction of total ATP compared with the control” value [3] was “about 25%”, the “effect of Ca2+ addition on ΔsltA growth in the presence of COL” value (A. fumigatus ΔsltA) was “rescue ΔsltA growth” and the “growth of ΔsltA compared with the wild-type strain” value (A. fumigatus ΔsltA) was “significantly more sensitive to COL”. The “sensitivity of ΔsltA ΔcrzA compared with ΔsltA” value (A. fumigatus ΔsltA ΔcrzA) was “as sensitive to COL and COL with CAS as ΔsltA alone”, the “luminescence readings compared with no compound controls” value [4] was “about 2 fold” and the “increased expression of SltA compared to non-exposure” value (SltA) was “about 4 fold”. The “increase of CrzA:GFP translocation to the nucleus” value (CrzA:GFP) was “about 4 fold”, the “A. fumigatus conidial killing, COL alone vs combination” value ([5]; COL 80 µM vs COL 80 µM + CAS 50 µg/mL) was “same level of conidial killing than the combination of COL 80 µM + CAS 50 µg/mL” and the “survival of infected animals over 3 days” value ([6]; in vivo) was “no impact on C. elegans survival”.
For caspofungin, the “germlings with mitochondrial fragmentation” value [2] was 35%, the “mRFP fluorescence of h2A::mRFP germlings” value [1] was “no differences in mRFP fluorescence” and the “reduction of total ATP compared with the control” value [3] was “about 25%”. For the same compound, the “growth of ΔsltA compared with the wild-type strain” value (A. fumigatus ΔsltA) was “comparable growth with the wild-type”, the “growth of ΔcalA compared to wild-type” value (A. fumigatus ΔcalA) was “significantly better growth” and the “growth of ΔcrzA compared to wild-type” value (A. fumigatus ΔcrzA) was “significantly better growth”. The “survival of infected animals over 3 days” value ([6]; 25 °C) was “significantly improved survival”.
For C[C@@H](c1ncncc1F)[C@](O)(Cn1cncn1)c1ccc(F)cc1F [VOR, voriconazole], the “A. fumigatus conidial killing” value ([5]; VOR 0.5 μg/mL, COL 20 and 40 μM, CAS 50 μg/mL, or COL + CAS, MOI 1:10, 24 h, n = 6) was 85%.
